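Cultured in 96-well plates, cells were exposed to test compound for 48 hours across five concentrations. The concentration for 50% growth inhibition is given as GI50. TGI is the concentration that stops growth completely.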

This is an account of results in PubChem BioAssay (NCI).

What all share (assay): NCI tumour cell line growth inhibition, 48 h
Experiment [1] concerns DMS 114 small cell lung.
The test system of experiment [2] is LXFL 529 NSCLC.
Experiment [3] deals with KM20L2 colon.
The test system of experiment [4] is RXF-631 renal.
Experiment [5] relates to HOP-18 NSCLC.
Experiment [6] concerns DLD-1 colon.
The subject of experiment [7] is M19-MEL melanoma.
For experiment [8], the system named is SN12K1 renal.
The test system of experiment [9] is P388 leukemia.
The test system of experiment [10] is P388/ADR leukemia.
Experiment [11] concerns XF 498 CNS.

For the compound `O=c1c(O)cccn1C1OC(CO)C(O)C1O` (centres undefined), the TGI in experiment [1], in [2], in experiment [3], in experiment [4], in [5] and in [6] was more than 100 µM throughout.

Consider `Cc1nc2c(n1-c1ccccc1)C(=O)c1ccccc1C2=O`, for which the TGI in experiment [1] is 61.3 µM; in experiment [7], 40.4 µM; in experiment [6], more than 100 µM.

Take `CS(=O)(=O)[O-].CS(=O)(=O)[O-].NC1CCCCC1N.[Pt+4]` (centres undefined): the GI50 in experiment [3] was more than 51.3 µM; in experiment [8], more than 100 µM; in experiment [7], 34.2 µM; in [5] it was more than 100 µM; in experiment [9], 4.81 µM; in experiment [6], more than 100 µM. The GI50 in experiment [10] was 43 µM. For the same compound, the TGI in experiment [3] is more than 100 µM; in experiment [8], more than 100 µM; in experiment [7] it was more than 100 µM; in [5], more than 100 µM; in experiment [9] it was more than 55.7 µM; in [6], more than 100 µM. This compound also returned a TGI in experiment [10] of more than 100 µM.

For the compound `O=C1C(Cl)=C(c2ccc([N+](=O)[O-])cc2)C(=O)c2c(O)cccc21`, the TGI in [1] was 0.786 µM; in experiment [2] it was 0.94 µM; in [11], 1.95 µM; in [7], 3.52 µM; in experiment [5], 2.04 µM; in experiment [6], 2.55 µM.

Regarding `C=CCCCCn1c2ccccc2c2c(C)c3cnccc3c(C)c21`, the TGI in experiment [1] is 16.8 µM; in [3] it was 31.9 µM; in experiment [11] it was 4.36 µM; in experiment [8] it was 44.3 µM; in experiment [5], 35.6 µM; in [9], 10.2 µM. Further, the TGI in [6] came out at 29.9 µM; in experiment [10], 15.8 µM.

For `O=C(O)Cc1ccccc1CCc1ccccc1Cl`, the TGI in experiment [2], in experiment [3], in experiment [11], in experiment [7], in experiment [5] and in experiment [6] was more than 100 µM in each case.

For the compound `C[C@]12CCC(=O)C=C1CC[C@@H]1[C@@H]2[C@@H](O)C[C@@]2(C)[C@H]1CC[C@]2(O)C(=O)COC(=O)CCC1CCCC1`, the TGI in [1], in [2], in experiment [3], in experiment [11], in experiment [7] and in [6] was more than 100 µM in each case.
